# Measured values reported in patent US20110217715A1, “GENE EXPRESSION IN DUCHENNE MUSCULAR DYSTROPHY” (CHILDREN'S HOSPITAL MEDICAL CENTER, priority 2008, published 2011).
# System: mRNA expression in peripheral blood of individuals with DMD
# Experiment: Whole-blood gene expression microarray: DMD administered deflazacort vs DMD administered prednisone
# Type: in vivo, human
# Conditions: for p-value / p-value (t-test, deflazacort vs. prednisone) / p-value (t-test, deflazacort vs prednisone): deflazacort vs. prednisone
# Method: Fifteen ml of blood was collected from each individual into 6 PAXgene® Vacutainer® tubes (PreAnalytiX, Germany) by antecubital fossa venipuncture. PAXgene® tubes contain a proprietary reagent that immediately stabilizes RNA, thus reducing RNA degradation and minimizing gene expression changes following phlebotomy. The tubes were then inverted 20 times, then remained undisturbed for 2 h at room temperature (about 19° C. to about 22° C.), and then stored at -70° C. until processed. Total RNA was isolated using the Paxgene® blood RNA kit (PreAnalytiX, Germany) according to the manufacturers instructions. The RNA isolated is from all cells in whole blood. Typical yields of total RNA isolated from about 7.5 ml of human whole blood were between 10 μg RNA and 40 μg RNA. RNA quality and purity was analyzed by spectrophotometry using the Nanodrop ND-1000, and RNA integrity was analyzed using the Agilent 2100 Bioanalyzer. […] Sample labeling, hybridization to chips, and image scanning were performed using standard Affymetrix protocols. For each whole blood sample from control individuals and individuals with DMD, total RNA was labeled using the One-Cycle Target Labeling protocol and hybridized to the arrays. […] Double-stranded cDNA synthesis, biotin-labeled cRNA synthesis, and cRNA fragmentation were performed according to the Affymetrix GeneChip Eukaryotic Expression Analysis protocol. The labeled, fragmented cRNA (15 μg) was hybridized at 45° C. overnight. After hybridization, the array was washed and stained. The arrays were scanned with an argon-ion laser at λ=570 nm, with a resolution of 3 μm/pixel (Affymetrix, Inc.). After scanning the array, the raw probe level values for each probe were saved in Affymetrix.cel files. […] Statistical analyses, including t-test analyses, unsupervised hierarchical clustering, and principal component analyses were conducted using Genespring 7.2 software ([…]® 7, Silicon Genetics, Redwood City Calif.). […] Corrections for multiple comparisons used a Benjamini-Hochberg False Discovery Rate (FDR) of 0.05, disclosed in Tang et al., J Cereb Blood Flow Metab 26 (2006) 1089, which is expressly incorporated by reference herein in its entirety. […] Sample processing and array hybridization, probe-level data analysis, and statistical analysis were identical to Example 1.
smiles,measurement,setting,value
CC(=O)OCC(=O)[C@@]12N=C(C)O[C@@H]1C[C@H]1[C@@H]3CCC4=CC(=O)C=C[C@]4(C)[C@H]3[C@@H](O)C[C@@]12C [deflazacort],expression of retinoic acid receptor α (RARa),"deflazacort compared to prednisone, blood",significantly up-regulated
same,p-value,"AA100891, Nucleic Acid No. 2100",0.0498
same,p-value,"AA534416, Nucleic Acid No. 2105",0.0123
same,"p-value (t-test, deflazacort vs. prednisone)","AA679303, Nucleic Acid No. 2067",0.0185
same,p-value,"AA702409, Nucleic Acid No. 2116",0.0453
same,"p-value (t-test, deflazacort vs. prednisone)","AA789296, Nucleic Acid No. 2010",0.0291
same,"p-value (t-test, deflazacort vs. prednisone)","AA830854, Nucleic Acid No. 1325",0.0452
same,"p-value (t-test, deflazacort vs prednisone)","AB023216, Nucleic Acid No. 2081",0.00521
same,"p-value (t-test, deflazacort vs prednisone)","AB033106, Nucleic Acid No. 2083",0.0446
same,p-value,"AF005774, Nucleic Acid No. 1945",0.0104
same,p-value,"AF009616, Nucleic Acid No. 1950",0.0293
same,p-value,"AF009619, Nucleic Acid No. 1943",0.0064
same,p-value,"AF015451, Nucleic Acid No. 1946",0.0107
same,p-value,"AF041459, Nucleic Acid No. 1944",0.00822
same,p-value,"AF041461, Nucleic Acid No. 1947",0.013
same,p-value,"AF075067, Nucleic Acid No. 2112",0.0376
same,p-value,"AF083208, Nucleic Acid No. 1892",0.00348
same,"p-value (t-test, deflazacort vs prednisone)","AF098114, Nucleic Acid No. 2069",0.0202
same,p-value,"AF147300, Nucleic Acid No. 1995",0.0271
same,"p-value (t-test, deflazacort vs prednisone)","AF207547, Nucleic Acid No. 2088",0.00744
same,p-value,"AF285167, Nucleic Acid No. 1894",0.0117
same,p-value,"AF313468, Nucleic Acid No. 1956",0.0435
same,p-value,"AF400600, Nucleic Acid No. 1955",0.0263
same,p-value,"AF400602, Nucleic Acid No. 1954",0.0148
same,"p-value (t-test, deflazacort vs prednisone)","AF499918, Nucleic Acid No. 2091",0.0369
same,"p-value (t-test, deflazacort vs. prednisone)","AI017983, Nucleic Acid No. 1338",0.0323
same,"p-value (t-test, deflazacort vs. prednisone)","AI056689, Nucleic Acid No. 2031",0.043
same,"p-value (t-test, deflazacort vs prednisone)","AI080505, Nucleic Acid No. 2099",0.0412
same,p-value,"AI091372, Nucleic Acid No. 1918",0.00592
same,p-value,"AI093231, Nucleic Acid No. 1906",0.0085
same,"p-value (t-test, deflazacort vs. prednisone)","AI250910, Nucleic Acid No. 2014",0.0029
same,p-value,"AI342146, Nucleic Acid No. 1905",0.048
same,"p-value (t-test, deflazacort vs. prednisone)","AI393727, Nucleic Acid No. 2034",0.0345
same,p-value,"AI436803, Nucleic Acid No. 1916",0.00828
same,"p-value (t-test, deflazacort vs prednisone)","AI535735, Nucleic Acid No. 2089",0.0426
same,"p-value (t-test, deflazacort vs. prednisone)","AI608725, Nucleic Acid No. 2053",6.16E−05
same,p-value,"AI651726, Nucleic Acid No. 2119",0.0107
same,p-value,"AI670862, Nucleic Acid No. 2017",0.0109
same,"p-value (t-test, deflazacort vs. prednisone)","AI719730, Nucleic Acid No. 2039",0.00281
same,p-value,"AI762695, Nucleic Acid No. 1996",0.032
same,p-value,"AI768497, Nucleic Acid No. 1910",0.0137
same,"p-value (t-test, deflazacort vs prednisone)","AI814925, Nucleic Acid No. 2072",0.0422
same,"p-value (t-test, deflazacort vs prednisone)","AI830331, Nucleic Acid No. 2075",0.0149
same,"p-value (t-test, deflazacort vs. prednisone)","AI830490, Nucleic Acid No. 2028",0.0146
same,p-value,"AI860150, Nucleic Acid No. 2018",0.026
same,p-value,"AI862537, Nucleic Acid No. 2118",0.0333
same,"p-value (t-test, deflazacort vs. prednisone)","AI868267, Nucleic Acid No. 1444",0.0285
same,"p-value (t-test, deflazacort vs. prednisone)","AI906424, Nucleic Acid No. 2044",0.0287
same,"p-value (t-test, deflazacort vs. prednisone)","AI926544, Nucleic Acid No. 2054",0.0136
same,p-value,"AI985590, Nucleic Acid No. 1901",0.0389
same,p-value,"AJ422148, Nucleic Acid No. 2104",0.026
same,p-value,"AK000119, Nucleic Acid No. 2121",0.0375
same,"p-value (t-test, deflazacort vs. prednisone)","AK023348, Nucleic Acid No. 2037",0.0274
same,p-value,"AK024677, Nucleic Acid No. 1915",0.00386
same,"p-value (t-test, deflazacort vs. prednisone)","AK024911, Nucleic Acid No. 2045",0.0429
same,p-value,"AK025217, Nucleic Acid No. 1997",0.0404
same,"p-value (t-test, deflazacort vs. prednisone)","AK074686, Nucleic Acid No. 2042",0.0406
same,p-value,"AK090660, Nucleic Acid No. 2080",0.0288
same,"p-value (t-test, deflazacort vs. prednisone)","AK092709, Nucleic Acid No. 2013",0.0392
same,p-value,"AL021977, Nucleic Acid No. 2110",0.0121
same,p-value,"AL049250, Nucleic Acid No. 2101",0.0486
same,"p-value (t-test, deflazacort vs. prednisone)","AL049273, Nucleic Acid No. 1402",0.0448
same,"p-value (t-test, deflazacort vs prednisone)","AL137645, Nucleic Acid No. 906",0.0416
same,"p-value (t-test, deflazacort vs. prednisone)","AL832727, Nucleic Acid No. 2022",0.0334
same,p-value,"AL833448, Nucleic Acid No. 2084",0.0326
same,p-value,"AU145206, Nucleic Acid No. 1909",0.046
same,p-value,"AU158358, Nucleic Acid No. 1897",0.0325
